Measured values taken from PMC6216040, “Repurposing of an old drug: In vitro and in vivo efficacies of buparvaquone against Echinococcus multilocularis” (International Journal for Parasitology: Drugs and Drug …, 2018).
Like-named read-outs stand apart in the source and are kept apart here.

Test system: E. multilocularis metacestodes
Experiment: PGI-assay: drug-induced damage on in vitro cultured metacestodes (Pathogen Box screening cascade and EC50)
Assay type: cell-based, Echinococcus multilocularis
Conditions: for cytotoxicity at 10 µM: Echinococcus multilocularis; for cytotoxicity at 10 µM / PGI release, % of the Tx-100 control, 5d / PGI release, % of the Tx-100 control, 12d: singlets, 10 µM; for PGI release, % of Tx-100 control, average, 5d / PGI release, % of Tx-100 control, average, 12d: confirmatory screening at 10 µM in triplicates, values as % of Tx-100 control
[1] = 120 h, 5 days of incubation, read-out: PGI release, % of the Tx-100 control, 5d
[2] = 288 h, 12 days of incubation, read-out: PGI release, % of the Tx-100 control, 12d

| Structure (SMILES) | cytotoxicity at 10 µM [1] | cytotoxicity at 10 µM [2] | PGI release, % of the Tx-100 control, 5d (5 days of incubation) | PGI release, % of the Tx-100 control, 12d (12 days of incubation) | PGI release, % of Tx-100 control, average, 5d (5 days of incubation) | PGI release, % of Tx-100 control, average, 12d (12 days of incubation) |
| --- | --- | --- | --- | --- | --- | --- |
| C[C@H]1c2cccc(O)c2C(=O)C2=C(O)[C@]3(O)C(=O)C(C(N)=O)=C(O)[C@@H](N(C)C)[C@@H]3[C@@H](O)[C@@H]21 [MMV000011, Doxycycline, reference compound] | 3.26% | -0.0343% | – | – | – | – |
| COc1cc(NC(C)CCCN)c2ncccc2c1 (stereo not drawn) [MMV000023, Primaquine, reference compound] | -0.23% | 17.6% | – | – | – | – |
| CCN(CC)CCCCCCNc1cc(OC)cc2c(C)ccnc12 [MMV000063, Sitamaquine, reference compound] | -0.0141% | 10.8% | – | – | – | – |
| O=S(=O)(c1ccc(Cl)cc1)N1CCN(C(=S)NCc2ccco2)CC1 [MMV000858] | – | – | -0.26% | 2.40% | – | – |
| COc1cccc2c(C)nc(N=C(N)N)nc12 [MMV000907] | – | – | -2.91% | 1.72% | – | – |
| CCCS(=O)(=O)N1CCC(CO)(Cc2ccccc2C(F)(F)F)CC1 [MMV001059] | – | – | 1.56% | 1.44% | – | – |
| COC(=O)C1=C(C)NC(C)=C(C(=O)OC(C)C)C1c1cccc2nonc12 (stereo not drawn) [MMV001493, Isradipine, reference compound] | 0.84% | 0.0436% | – | – | – | – |
| CC1CS(=O)(=O)CCN1/N=C/c1ccc([N+](=O)[O-])o1 (stereo not drawn) [MMV001499, Nifurtimox, reference compound] | 2.54% | 3.97% | – | – | – | – |
| CNCCC(Oc1ccc(C(F)(F)F)cc1)c1ccccc1 (stereo not drawn) [MMV001561, Fluoxetine, reference compound] | -1.25% | -5.98% | – | – | – | – |
| O=C(C1CCCCC1)N1CC(=O)N2CCc3ccccc3C2C1 (stereo not drawn) [MMV002529, Praziquantel, reference compound] | -0.87% | -0.49% | – | – | – | – |
| CCN(CC)C(=O)N1CCN(C)CC1 [MMV002816, Diethylcarbamazine, reference compound] | -0.92% | -1.56% | – | – | – | – |
| Oc1c(I)cc(I)c2cccnc12 [MMV002817, Diiodohydroxyquinoline, reference compound] | -1.42% | -0.41% | – | – | – | – |
| CN1CCCN(C(c2ccccc2)c2ccc(Cl)cc2)CC1 (stereo not drawn) [MMV004168] | – | – | -0.40% | 76.56% | -1.18% | 4.34% |
| O=C1Nc2ccc(Br)cc2C12NCCc1c2[nH]c2ccccc12 (stereo not drawn) [MMV006239] | – | – | 0.78% | 2.27% | – | – |
| Cc1ccc2[nH]c3c(NCCN(C)C)ncnc3c2c1 [MMV006372] | – | – | 0.48% | -0.11% | – | – |
| COc1cc2ncnc(NC3CCN(Cc4ccccc4)CC3)c2cc1OC [MMV006741] | – | – | -1.05% | 0.30% | – | – |
| Cc1cc(Cl)c(S(=O)(=O)N2CCCC2)cc1OCC(=O)NC1CCCCC1 [MMV006833] | – | – | 0.0374% | -0.28% | – | – |

| Structure (SMILES) | cytotoxicity at 10 µM [1] | cytotoxicity at 10 µM [2] | PGI release, % of the Tx-100 control, 5d (5 days of incubation) | PGI release, % of the Tx-100 control, 12d (12 days of incubation) | PGI release, % of Tx-100 control, average, 5d (5 days of incubation) | PGI release, % of Tx-100 control, average, 12d (12 days of incubation) |
| --- | --- | --- | --- | --- | --- | --- |
| CN(C)c1cc(NC(=O)Nc2ccccc2)c2ccccc2n1 [MMV006901] | – | – | 13.97% | 19.56% | – | – |
| Cc1cc(NC(=O)c2ccc(S(=O)(=O)N(Cc3ccccc3)C(C)C)cc2)no1 [MMV007133] | – | – | -0.95% | 0.46% | – | – |
| COc1cc(OC)cc(C(=O)NCC2Cc3cc(Cl)cc(-c4ccncc4)c3O2)c1 (stereo not drawn) [MMV007471] | – | – | 1.94% | 7.77% | – | – |
| Cc1cc(C)n(-c2ccc(NC(=O)C3CCN(Cc4cnc(C)s4)CC3)cc2)n1 [MMV007625] | – | – | 0.65% | 25.58% | -1.00% | -1.56% |
| CCOc1ccc(-c2nc(NC(=O)CS(=O)(=O)c3ccccc3)sc2C)cc1 [MMV007638] | – | – | -0.28% | 0.13% | – | – |
| O=C(NC1CC1)c1ccc(CSCc2ccccc2Cl)o1 [MMV007803] | – | – | -0.54% | -0.13% | – | – |
| Nc1ccc(C(=O)Nc2ccc(-c3nc4ccccc4o3)cc2)cc1 [MMV007920] | – | – | 0.08% | -0.69% | – | – |
| COc1ccc(CN2CCOc3ccc(C(C)(O)CN(C)C)cc3C2)cc1C (stereo not drawn) [MMV008439] | – | – | -0.31% | -1.11% | – | – |
| Cc1cc(C(=O)Nc2cnn(Cc3ccc(Cl)cc3Cl)c2)no1 [MMV009054] | – | – | -0.80% | -0.25% | – | – |
| O=C(C1CCN(c2nnnn2-c2ccccc2)CC1)N1CCc2ccccc2C1 [MMV009135] | – | – | -0.49% | -1.30% | – | – |
| COc1ccc(-c2cnc3ccc(NCc4ccc(S(N)(=O)=O)cc4)nn23)cn1 [MMV010545] | – | – | -0.28% | -0.35% | – | – |
| COc1cc(-c2cc(-c3ccc(S(C)(=O)=O)cc3)cnc2N)ccc1O [MMV010576] | – | – | -0.22% | -2.40% | – | – |
| c1csc(-c2cnc3sc(NCC4CCOCC4)nn23)c1 [MMV010764] | – | – | -0.61% | -4.41% | – | – |
| Cc1cc(Nc2ccc(C(F)(F)F)cc2)n2ccnc2n1 [MMV011229] | – | – | -0.86% | -1.35% | – | – |
| COc1ccc(CCN2CCC(NCc3cccc(N(C)C)c3)CC2)cc1 [MMV011511] | – | – | 1.21% | 4.25% | – | – |
| NCC(=O)N1CCn2c(nc(-c3ccccc3)c2Nc2ccc3c(c2)OCO3)C1 [MMV011691] | – | – | 1.25% | 2.05% | – | – |
| FC(F)(F)c1cnc(Sc2nnc(-c3ccncc3)o2)c(Cl)c1 [MMV011765] | – | – | 0.33% | 0.66% | – | – |
